Test results reported in patent US6900239B2, “Tumor chemopotentiation using isocoumarin derivatives” (ILWZ ILEX Products, Inc., priority 2000, dated 2005).

Assays:
[1] = tested on: MDAMB-435 human breast tumor xenografts; experiment: MDAMB-435 orthotopic model, NM-3 with 5-Fluorouracil; format: in vivo, female NCRNU nude mice; conditions: 5-FU 10 mpk q14d; 0,14 alone
Description: In order to evaluate the antitumor activity of NM-3 in combination with 5-Fluorouracil (5-FU) vs. MDAMB-435 human breast tumor xenografts, female NCRNU nude mice were implanted with MDAMB-435 cells into the subaxillary mammary fat pad. When the tumors were between 50 and 80 mm^3, NM-3 was administered via intraperitoneal (i.p.) injection daily at 10 and 100 mg/kg; 5-FU was administered via i.p. injection on days 0 and 14, at 10 mg/kg. Mice were weighed twice weekly, and tumor measurements were taken by calipers twice weekly. Mice were euthenized at the end of the treatment period. Upon termination, the mice were weighed, sacrificed and their tumors were excised.
Initial studies were conducted with 5-FU to determine the optimal dose of this agent when administered in combination with NM-3.

IMC carcinoma = experiment: Combination with cyclophosphamide, tumor weight; format: in vivo, CDF1 mice; conditions: Cyclophosphamide 300 mg/kg i.v. day 14 alone
Description: To determine the effect on IMC carcinoma growth of NM-3 treatment combined with simultaneous cyclophosphamide treatment, IMC carcinoma cells (1×10^6 cells per mouse) were subcutaneously transplanted into CDF1 mice (female, 10 weeks old) in the inguinal area. NM-3 which was dissolved using 5% DMSO+Tween80, was continuously orally administered from day 1 to day 41 after transplantation except on day 14, when cyclophosphamide (300 mg/kg) was injected intravenously.

colon 26 adenocarcinoma = experiment: Combination with cyclophosphamide, survival; format: in vivo, BALB/c mice; conditions: Cyclophosphamide 300 mg/kg i.v. day 14 alone
Description: To determine the effect on tumor growth of NM-3 treatment combined with simultaneous cyclophosphamide treatment, colon 26 adenocarcinoma cells (5×10^4 cells per mouse) were subcutaneously transplanted into BALB/c mice (female, 7 weeks old) in the inguinal area. NM-3 was continuously orally administered from day 1 to day 72 after the transplantation except on day 14 when cyclophosphamide was dosed.

cultured tumor cells = conditions: cited from earlier work
[2] = tested on: transplantable mouse solid tumors; conditions: oral administration; cited from earlier work
[3] = in vivo; cited from earlier work
[4] = mice and dogs; cited from earlier work
[5] = tested on: MDAMB-435 human breast tumor xenografts; experiment: MDAMB-435 orthotopic model, NM-3 with paclitaxel, second study (100 mm^3) and delivery routes; format: in vivo, female NCRNU nude mice; conditions: Taxol 12.5 mg/kg q7d alone
Description: In order to determine the effect of the combination of NM-3 with the cytotoxic drug, paclitaxel on human breast tumor xenografts, female NCRNU nude mice were implanted with MDAMB-435 cells into the subaxillary mammary fat pad. NM-3 was administered via intraperitoneal (i.p.) injection daily at doses ranging from 10-100 mg/kg; paclitaxel was administered via i.p. injection every 7 days, starting on day 0, at 10 mg/kg.
In a second study, treatment was initiated when tumor volumes reached 100 mm^3. Paclitaxel was administered at the fixed dose of 12.5 mg/kg, q7d and NM-3 was dosed at 10 and 100 mg/kg, i.p. daily for 28 days.
A comparison was also made between different delivery routes of NM-3 in the combination studies. NM-3 given i.p. daily, bid, and continuously using Alzet mini osmotic pumps in combination with paclitaxel was evaluated for effectiveness in reducing tumor growth.

[6] = tested on: MDAMB-435 human breast tumor xenografts; experiment: MDAMB-435 orthotopic model, NM-3 with paclitaxel, first study; format: in vivo, female NCRNU nude mice; conditions: for % Tumor Growth Inhibition: Taxol 10 mg/kg q7d i.p. alone
Description: In order to determine the effect of the combination of NM-3 with the cytotoxic drug, paclitaxel on human breast tumor xenografts, female NCRNU nude mice were implanted with MDAMB-435 cells into the subaxillary mammary fat pad. […]

[7] = tested on: Human umbilical vein endothelial cells (HUVEC); experiment: HUVEC colony formation with a constant amount of gamma radiation; format: cell-based
Description: Human umbilical vein endothelial cells (HUVEC) were exposed to a constant amount of gamma radiation in the presence or absence of various concentrations of NM-3 in the culture medium. The numbers of HUVEC colonies that formed following the different treatments were recorded and normalized to the number of colonies formed under control (no NM-3) conditions and the results are shown in FIG. 1. […] For comparison, HUVEC cells were treated with either angiostatin or endostatin, two additional anti-angiogenic proteins.

[8] = tested on: Lewis Lung carcinoma (LLC) tumors; experiment: Radiation sensitivity of Lewis Lung carcinoma in vivo; set-up: species or system C57BL/6 female mice; conditions: combined with X-ray treatment
Description: To determine whether NM-3 treatment increases the radiation sensitivity of tumors in vivo, Lewis Lung carcinoma (LLC) tumors were established in C57BL/6 female mice (Frederick Cancer Research Institute) prior to NM-3 and radiation treatment. LLC cells (1×10^6 cells) were injected in the right hind limb of the mice and tumors were allowed to grow a volume of 250-350 mm^3. Tumor volumes were determined by direct measurements with calipers calculated by the formula: V=length×width×depth/2. Mice were then divided into groups and treated with NM-3 (100 mg/kg total) or PBS for two days before beginning radiation therapy. Animals then received NM-3 (25 mg/kg/day, i.p.) or PBS approximately four hours prior to radiation treatment. Tumors were irradiated using a GE Maxitron X-ray generator operating at 150 kV, 30 mA, using a 1 mm aluminum filter at a dose rate of 188 cGy/minute. Mice were shielded with lead except for the tumor-bearing area in the hind limb. Treatments and tumor measurements continued for a period of 17 days (see FIG. 4). […] Whereas control tumors reached 8 initial tumor volumes (Vo) after 8 days, X-ray treated tumors required 16 days to grow to this size. […] For comparison, data are plotted with two additional anti-angiogenic drugs, antiostatin and endostatin (see FIGS. 3B and 3C).

Molecule: O=c1[nH]cc(F)c(=O)[nH]1 [5-FU, 5-Fluorouracil, reference compound]
- Final Tumor Wt. (mg) +/− SEM [1]: 259.6 ± 36.22 mg

Molecule: O=P1(N(CCCl)CCCl)NCCCO1 (stereo not shown) [Cyclophosphamide, reference compound]
- Inhibition (%) (IMC carcinoma): 70.7%
- Solid Weight mg ± S.D. (IMC carcinoma; day 42): 3620.4 ± 1406.3 mg
- Mean Survival Days (days ± S.D.) (colon 26 adenocarcinoma): 47.9 ± 13.9 days
- T/C (%) (colon 26 adenocarcinoma): 145.1%
- T/C (%) (colon 26 adenocarcinoma; listed as cyclophosphamide): 145%

Molecule: COc1cc(O)c2c(=O)oc(CO)cc2c1 [Cytogenin, 3-hydroxymethyl-6-methoxy-8-hydroxy-1H-2-benzopyran-1-one]
- Anti-proliferation inhibitory activity (cultured tumor cells): very low anti-proliferation inhibitory activity
- Antitumor activity [2]: demonstrated antitumor activities
- Stability [3]: in vivo instability
- Toxicity [4]: low toxicity

Molecule: CC(=O)O[C@H]1C(=O)[C@@]2(C)[C@H]([C@H](OC(=O)c3ccccc3)[C@]3(O)C[C@H](OC(=O)[C@H](O)[C@@H](NC(=O)c4ccccc4)c4ccccc4)C(C)=C1C3(C)C)[C@]1(OC(C)=O)CO[C@@H]1C[C@@H]2O [Taxol, paclitaxel]
- % Tumor Growth Inhibition [5]: 26.52%
- Final Tumor Ratio (V/Vo) +/− SEM [5]: 4.71 ± 0.76 V/Vo
- Mice with Complete Shrinkage ([5]; n 9): 0
- Final Tumor Wt. (mg) +/− SEM ([6]; Taxol 10 mg/kg q7d alone): 215.6 ± 19.73 mg
- Mice with Complete Shrinkage ([6]; Taxol 10 mg/kg q7d alone, n 9): 0
- % Tumor Growth Inhibition ([6]; listed as Paclitaxel): no tumor growth inhibition
- % Tumor Growth Inhibition ([6]; listed as paclitaxel): minimal effect
- Tumor growth inhibition ([6]; paclitaxel 20 mg/kg, single agent): significant effect on tumor growth inhibition

B1: angiostatin: 38-kDa fragment of plasminogen that selectively inhibits proliferation of endothelial cells; anti-angiogenic protein (protein, UniProt P00747 79-466, looked up)
Angiostatin: NRKSSIIIRMRDVVLFEKKVYLSECKTGNGKNYRGTMSKTKNGITCQKWSSTSPHRPRFSPATHPSEGLEENYCRNPDNDPQGPWCYTTDPEKRYDYCDILECEEECMHCSGENYDGKISKTMSGLECQAWDSQSPHAHGYIPSKFPNKNLKKNYCRNPDRELRPWCFTTDPNKRWELCDIPRCTTPPPSSGPTYQCLKGTGENYRGNVAVTVSGHTCQHWSAQTPHTHNRTPENFPCKNLDENYCRNPDGKRAPWCHTTNSQVRWEYCKIPSCDSSPVSTEQLAPTAPPELTPVVQDCYHGDGQSYRGTSSTTTTGKKCQSWSSMTPHRHQKTPENYPNAGLTMNYCRNPDADKGPWCFTTDPSVRWEYCNLKKCSGTEASVVAPPP
modifications: Angiostatin
notes: anti-angiogenic protein
- Inhibition of HUVEC growth compared with NM-3 [7]: Neither angiostatin nor endostatin inhibited HUVEC growth to the extent of NM-3
- Radiation sensitization of tumors [8]: some radiation sensitization

B2: endostatin: anti-angiogenic protein used for comparison (protein, UniProt P39060 1572-1754, looked up)
Endostatin: HSHRDFQPVLHLVALNSPLSGGMRGIRGADFQCFQQARAVGLAGTFRAFLSSRLQDLYSIVRRADRAAVPIVNLKDELLFPSWEALFSGSEGPLKPGARIFSFDGKDVLRHPTWPQKSVWHGSDPNGRRLTESYCETWRTEAPSATGQASSLLGGRLLGQSAASCHHAYIVLCIENSFMTASK
modifications: Endostatin
notes: anti-angiogenic protein used for comparison
- Inhibition of HUVEC growth compared with NM-3 [7]: Neither angiostatin nor endostatin inhibited HUVEC growth to the extent of NM-3
- Radiation sensitization of tumors [8]: did not
